The source of these data is paper PMC3914206.

Format in all cases: binding
Assay [1] deals with T1, panel of 442 kinases (Homo sapiens, UniProt P10721, V559D/V654A).
T1 construct: purchased KINOMEscan
The conditions noted are these: Compound Concentration 10 µM. The source says:
(§1) We assessed the selectivity of members of this scaffold using the KINOMEscan methodology across a near comprehensive panel of 442 kinases [[18,27]].

Assay [2] concerns the target T2, panel of 442 kinases (Homo sapiens, UniProt P22607, G697C).
T2 construct: purchased KINOMEscan
The settings on record: Compound Concentration 10 µM.
Description: as §1

For assay [3], the target named is T3, panel of 442 kinases (Homo sapiens, UniProt P35590).
T3 construct: purchased KINOMEscan
T3 sequence (P35590 22-1138): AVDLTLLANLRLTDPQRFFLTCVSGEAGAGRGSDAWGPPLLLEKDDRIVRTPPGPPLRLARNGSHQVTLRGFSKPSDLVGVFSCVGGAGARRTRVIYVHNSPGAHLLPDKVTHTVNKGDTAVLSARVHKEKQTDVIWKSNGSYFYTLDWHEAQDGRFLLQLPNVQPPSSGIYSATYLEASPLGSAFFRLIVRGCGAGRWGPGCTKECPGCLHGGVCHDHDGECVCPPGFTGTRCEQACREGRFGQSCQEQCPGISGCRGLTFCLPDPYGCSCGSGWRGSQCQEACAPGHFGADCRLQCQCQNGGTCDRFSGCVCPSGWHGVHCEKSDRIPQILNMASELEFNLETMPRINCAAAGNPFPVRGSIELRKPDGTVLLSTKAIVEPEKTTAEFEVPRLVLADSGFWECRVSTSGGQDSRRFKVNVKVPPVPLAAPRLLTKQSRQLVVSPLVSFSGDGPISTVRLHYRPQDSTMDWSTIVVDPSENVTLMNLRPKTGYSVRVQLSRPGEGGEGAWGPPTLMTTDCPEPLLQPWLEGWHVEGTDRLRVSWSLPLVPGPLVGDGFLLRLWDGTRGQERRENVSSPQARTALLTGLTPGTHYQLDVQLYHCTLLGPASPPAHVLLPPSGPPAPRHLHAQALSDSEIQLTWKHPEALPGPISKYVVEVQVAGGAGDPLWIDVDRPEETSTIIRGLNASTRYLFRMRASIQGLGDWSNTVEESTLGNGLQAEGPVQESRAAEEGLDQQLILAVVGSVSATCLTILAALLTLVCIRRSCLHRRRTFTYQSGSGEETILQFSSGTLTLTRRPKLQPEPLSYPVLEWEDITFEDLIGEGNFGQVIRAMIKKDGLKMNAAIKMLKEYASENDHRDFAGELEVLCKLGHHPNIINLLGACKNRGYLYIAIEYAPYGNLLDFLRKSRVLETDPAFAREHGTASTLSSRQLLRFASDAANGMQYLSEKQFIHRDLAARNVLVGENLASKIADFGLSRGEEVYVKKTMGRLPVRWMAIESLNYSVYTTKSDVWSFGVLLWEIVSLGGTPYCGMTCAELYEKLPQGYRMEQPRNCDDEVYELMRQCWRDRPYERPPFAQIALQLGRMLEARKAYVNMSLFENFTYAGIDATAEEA
The conditions noted are these: kinase TIE1; compound concentration 10 µM.
Description: as §1

In assay [4] the target is T4, panel of 442 kinases (Homo sapiens, UniProt P36507).
T4 construct: purchased KINOMEscan
T4 sequence (P36507 whole entry): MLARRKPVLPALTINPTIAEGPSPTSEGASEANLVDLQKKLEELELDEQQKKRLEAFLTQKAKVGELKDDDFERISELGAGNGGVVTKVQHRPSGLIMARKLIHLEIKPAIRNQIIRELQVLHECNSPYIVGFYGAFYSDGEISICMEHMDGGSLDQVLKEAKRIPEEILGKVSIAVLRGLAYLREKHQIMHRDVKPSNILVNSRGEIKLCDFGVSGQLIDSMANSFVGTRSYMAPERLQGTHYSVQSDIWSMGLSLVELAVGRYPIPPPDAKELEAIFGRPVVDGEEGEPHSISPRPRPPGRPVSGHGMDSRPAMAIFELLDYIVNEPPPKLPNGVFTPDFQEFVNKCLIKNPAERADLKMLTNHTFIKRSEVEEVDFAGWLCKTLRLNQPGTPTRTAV
The settings on record: Compound Concentration 10 µM.
Description: as §1

Molecules are shown by their SMILES.

T2 sequence (P22607 23-806 G697C): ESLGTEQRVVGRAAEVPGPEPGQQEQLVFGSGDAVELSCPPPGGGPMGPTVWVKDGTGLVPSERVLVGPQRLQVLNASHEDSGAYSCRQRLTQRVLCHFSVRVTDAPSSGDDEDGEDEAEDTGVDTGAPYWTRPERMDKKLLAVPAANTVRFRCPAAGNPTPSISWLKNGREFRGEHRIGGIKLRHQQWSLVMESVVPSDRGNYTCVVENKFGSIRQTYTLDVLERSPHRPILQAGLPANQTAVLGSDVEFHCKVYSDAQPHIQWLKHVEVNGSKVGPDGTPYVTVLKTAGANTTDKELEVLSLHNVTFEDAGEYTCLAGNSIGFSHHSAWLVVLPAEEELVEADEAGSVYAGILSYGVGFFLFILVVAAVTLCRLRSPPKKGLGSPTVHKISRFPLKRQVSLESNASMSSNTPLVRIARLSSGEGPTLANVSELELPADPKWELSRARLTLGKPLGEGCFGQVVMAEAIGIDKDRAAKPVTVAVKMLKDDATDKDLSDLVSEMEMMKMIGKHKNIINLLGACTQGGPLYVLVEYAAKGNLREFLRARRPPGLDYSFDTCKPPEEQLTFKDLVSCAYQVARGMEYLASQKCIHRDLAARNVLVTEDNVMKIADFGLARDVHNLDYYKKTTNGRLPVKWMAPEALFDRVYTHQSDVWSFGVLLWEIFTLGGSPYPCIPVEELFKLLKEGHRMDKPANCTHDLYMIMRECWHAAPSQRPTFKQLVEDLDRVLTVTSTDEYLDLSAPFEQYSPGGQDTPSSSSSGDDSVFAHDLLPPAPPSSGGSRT
T1 sequence (P10721 26-976 V559D/V654A): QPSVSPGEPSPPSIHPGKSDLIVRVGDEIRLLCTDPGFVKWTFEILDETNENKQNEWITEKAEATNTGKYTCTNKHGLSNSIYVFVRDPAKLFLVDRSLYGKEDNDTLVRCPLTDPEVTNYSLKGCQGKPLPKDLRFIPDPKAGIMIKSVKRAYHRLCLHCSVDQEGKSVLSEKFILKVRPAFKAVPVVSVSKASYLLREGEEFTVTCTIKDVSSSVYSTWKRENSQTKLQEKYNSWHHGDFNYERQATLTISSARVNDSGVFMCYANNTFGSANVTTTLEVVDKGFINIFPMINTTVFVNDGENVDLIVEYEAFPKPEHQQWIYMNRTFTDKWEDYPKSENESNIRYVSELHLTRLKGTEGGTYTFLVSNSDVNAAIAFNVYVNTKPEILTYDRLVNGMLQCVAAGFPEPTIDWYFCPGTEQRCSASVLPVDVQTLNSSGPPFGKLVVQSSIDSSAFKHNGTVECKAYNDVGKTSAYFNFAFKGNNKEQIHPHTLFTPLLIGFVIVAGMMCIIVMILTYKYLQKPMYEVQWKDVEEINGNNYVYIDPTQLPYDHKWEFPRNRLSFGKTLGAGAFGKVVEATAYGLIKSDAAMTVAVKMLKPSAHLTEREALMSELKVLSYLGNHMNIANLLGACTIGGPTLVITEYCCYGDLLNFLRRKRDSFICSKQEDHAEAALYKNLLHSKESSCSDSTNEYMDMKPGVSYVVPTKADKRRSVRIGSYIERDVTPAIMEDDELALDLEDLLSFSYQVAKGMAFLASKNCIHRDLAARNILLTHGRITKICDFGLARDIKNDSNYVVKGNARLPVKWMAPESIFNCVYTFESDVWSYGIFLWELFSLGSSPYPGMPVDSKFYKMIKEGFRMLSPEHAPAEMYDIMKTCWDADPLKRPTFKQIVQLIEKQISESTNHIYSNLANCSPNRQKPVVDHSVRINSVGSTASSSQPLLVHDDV

`COc1cc(C(=O)N2CCC(N3CCN(C)CC3)CC2)ccc1Nc1ncc2c(n1)N(C1CCCC1)c1ccccc1C(=O)N2C` [Compound 25, 11-cyclopentyl-2-((2-methoxy-4-(4-(4-methylpiperazin-1-yl)piperidine-1-carbonyl)phenyl)amino)-5-methyl-5H-benzo[e]pyrimido[5,4-b][1,4]diazepin-6(11H)-one]: the “KINOMEscan: KIT(V559D,V654A)” value in assay [1] was found to be 100. The “KINOMEscan: FGFR3(G697C)” value in assay [2] was 100. Further, the “% Ctrl, TIE1” value in assay [3] was found to be 100 % Ctrl. The “KINOMEscan: MEK2” value in assay [4] is 66.
For the compound `COc1cc(C(=O)N2CCC(N3CCN(C)CC3)CC2)ccc1Nc1ncc2c(n1)N1CCc3cccc(c31)C(=O)N2C` [Compound 24], the “KINOMEscan: FGFR3(G697C)” value in assay [2] amounted to 80. In assay [3], the “% Ctrl, TIE1” value is listed as 70 % Ctrl.
For the compound `COc1cc(C(=O)N2CCC(N3CCN(C)CC3)CC2)ccc1Nc1ncc2c(n1)N(C)c1ccccc1C(=O)N2C` [15 (LRRK2-IN-1)], in assay [1], the “KINOMEscan: KIT(V559D,V654A)” value is recorded as 100. Further, the “KINOMEscan: FGFR3(G697C)” value in assay [2] is reported as 85. The “% Ctrl, TIE1” value in assay [3] was 100 % Ctrl. Moreover, the “KINOMEscan: MEK2” value in assay [4] turned out to be 99.
For `CCOc1cc(C(=O)N2CCC(N3CCN(C)CC3)CC2)ccc1Nc1ncc2c(n1)N(C1CCCC1)c1ccccc1C(=O)N2C` [Compound 26], in that order: 100, 100, 100 % Ctrl and 89.
